The results in this text go back to patent publication US20100105673A1, “SUBSTITUTED AMINOFURANONES AND THEIR USE” (priority 2006, published 2010).

In this assay the target is T1, HIV-1 protease wild type protein (Human immunodeficiency virus type 1 group M subtype B, UniProt P04585).
T1 construct: 20 μl of 0.2−1 nM HIV-1 protease wild type or mutant protein; purchased AscoProt Biotech, Prague, Czech Republic
Briefly: Biochemical Protease Assay. How it is done:
For the determination of their in vitro activity on HIV protease the test substances are dissolved in DMSO and serially diluted. In each case 0.5 μl of substance dilution, 20 μl of 0.2−1 nM HIV-1 protease wild type or mutant protein (e.g. multiresistant isolate “35513”: L10I, I15V, L19I, K20R, E35D, M36I, R41K, I54V, L63P, H69K, A71V, T74P, I84V, L89M, L90M, 193L, AscoProt Biotech, Prague, Czech Republic) in buffer 1 (50 mM sodium acetate pH 4.9, 0.02% BSA, 0.1 mM EDTA, 0.5 mM DTT) and 20 μl of 8 μM substrate (M1865 from Bachem, Bubendorf, Switzerland; Matayoshi et al., Science 1990, 247, 954-8) in buffer 1 are added successively to a 384 well microtiter plate (Greiner, Frickenhausen, Germany), incubated for 60-180 minutes at 32° C. and the fluorescence is measured (e.g. Tecan Safire, 340 nm extinction, 520 nm emission). IC50 values are determined by graphical plotting of the substance concentration against the percentage inhibition.
One may read the IC50 as the concentration that gives 50% inhibition. High values mean weaker potency, low ones greater potency. `Cc1cc(-c2cccc(S(C)(=O)=O)c2)c(Cl)cc1C1=C(N)[C@@]2(CCCN(CC(=O)NCc3cccs3)C2)OC1=O` (single isomer, unassigned) [Example 84]: the IC50 was 2.5 nM. That is a single-digit nanomolar value.
Turning to `Cc1cc(-c2cccc(S(C)(=O)=O)c2)c(Cl)cc1C1=C(N)C2(CCCN(CC(=O)NCc3cccc(F)c3F)C2)OC1=O` (stereo not drawn) [Example 51], the midpoint of inhibition, the IC50, lay at 2.6 nM.
In the case of `Cc1cc(-c2cccc(O)c2)c(Cl)cc1C1=C(N)C2(CCCN(CC(=O)NCc3ccccc3)C2)OC1=O` (stereo not drawn) [Example 27] it was 14 nM.
In the case of `Cc1cc(-c2cccc(NS(=O)(=O)CCN3CCOCC3)c2)c(Cl)cc1C1=C(N)C2(CCCCC2)OC1=O` [Example 20] it was 510 nM; in that of `Cc1cc(-c2cccc(S(C)(=O)=O)c2)c(Cl)cc1C1=C(N)[C@@]2(CCCN(CC(=O)NCc3ccccc3)C2)OC1=O` (single isomer, unassigned) [Example 82], 11 nM; in that of `CCC(C)CNC(=O)CN1CCCC2(C1)OC(=O)C(c1cc(Cl)c(-c3cccc(S(C)(=O)=O)c3)cc1C)=C2N` (stereo not drawn) [Example 79], 85 nM.
